Measurements from PubChem BioAssay AID1259407 (Chemical Carcinogenesis Research Information System (CCRIS), 2018).
Calls of active or inactive are those of the source. No rule for the calls is given here.

System: CCRIS mutagenicity, Ames/micronucleus/aberration tests
Experiment: CCRIS mutagenicity studies
[1] = Test System: AMES SALMONELLA TYPHIMURIUM, Strain/Indicator: TA98, Metabolic Activation: NONE, Method: STANDARD PLATE
[2] = Test System: AMES SALMONELLA TYPHIMURIUM, Strain/Indicator: TA100, Metabolic Activation: NONE, Method: STANDARD PLATE
[3] = Test System: AMES SALMONELLA TYPHIMURIUM, Strain/Indicator: TA100, Metabolic Activation: RAT, LIVER, S-9, AROCLOR 1254, Method: STANDARD PLATE
[4] = Test System: AMES SALMONELLA TYPHIMURIUM, Strain/Indicator: TA1535, Metabolic Activation: NONE, Method: STANDARD PLATE
[5] = Test System: AMES SALMONELLA TYPHIMURIUM, Strain/Indicator: TA1535, Metabolic Activation: RAT, LIVER, S-9, AROCLOR 1254, Method: STANDARD PLATE
[6] = Test System: AMES SALMONELLA TYPHIMURIUM, Strain/Indicator: TA1537, Metabolic Activation: NONE, Method: STANDARD PLATE
[7] = Test System: AMES SALMONELLA TYPHIMURIUM, Strain/Indicator: TA1537, Metabolic Activation: RAT, LIVER, S-9, AROCLOR 1254, Method: STANDARD PLATE
[8] = Test System: AMES SALMONELLA TYPHIMURIUM, Strain/Indicator: TA1538, Metabolic Activation: NONE, Method: STANDARD PLATE

## COc1ccc(N)c(OC)c1
Test System: AMES SALMONELLA TYPHIMURIUM, Strain/Indicator: TA98, Metabolic Activation: HAMSTER, LIVER, S-9, AROCLOR 1254 (30%), Method: PREINCUBATION
  mutagenic call: active; positive
Test System: AMES SALMONELLA TYPHIMURIUM, Strain/Indicator: TA98, Metabolic Activation: HAMSTER, LIVER, S-9, Method: STANDARD PLATE
  mutagenic call: inactive; negative
Test System: AMES SALMONELLA TYPHIMURIUM, Strain/Indicator: TA98, Metabolic Activation: MOUSE, LIVER, S-9, AROCLOR 1254, Method: STANDARD PLATE
  mutagenic call: inactive; negative
Test System: AMES SALMONELLA TYPHIMURIUM, Strain/Indicator: TA98, Metabolic Activation: MOUSE, LIVER, S-9, Method: STANDARD PLATE
  mutagenic call: inactive; negative
Test System: AMES SALMONELLA TYPHIMURIUM, Strain/Indicator: TA98, Metabolic Activation: NONE, Method: PREINCUBATION
  mutagenic call: inactive; negative
[1]
  mutagenic call: inactive; negative
Test System: AMES SALMONELLA TYPHIMURIUM, Strain/Indicator: TA98, Metabolic Activation: RAT, LIVER, S-9, AROCLOR 1254 (30%), Method: PREINCUBATION
  mutagenic call: active; positive
Test System: AMES SALMONELLA TYPHIMURIUM, Strain/Indicator: TA98, Metabolic Activation: RAT, LIVER, S-9, Method: STANDARD PLATE
  mutagenic call: inactive; negative
Test System: AMES SALMONELLA TYPHIMURIUM, Strain/Indicator: TA100, Metabolic Activation: HAMSTER, LIVER, S-9, AROCLOR 1254 (30%), Method: PREINCUBATION
  mutagenic call: active; positive
Test System: AMES SALMONELLA TYPHIMURIUM, Strain/Indicator: TA100, Metabolic Activation: HAMSTER, LIVER, S-9, AROCLOR 1254, Method: STANDARD PLATE
  mutagenic call: inactive; negative
Test System: AMES SALMONELLA TYPHIMURIUM, Strain/Indicator: TA100, Metabolic Activation: HAMSTER, LIVER, S-9, Method: STANDARD PLATE
  mutagenic call: inactive; negative
Test System: AMES SALMONELLA TYPHIMURIUM, Strain/Indicator: TA100, Metabolic Activation: MOUSE, LIVER, S-9, AROCLOR 1254, Method: STANDARD PLATE
  mutagenic call: inactive; negative
Test System: AMES SALMONELLA TYPHIMURIUM, Strain/Indicator: TA100, Metabolic Activation: MOUSE, LIVER, S-9, Method: STANDARD PLATE
  mutagenic call: inactive; negative
Test System: AMES SALMONELLA TYPHIMURIUM, Strain/Indicator: TA100, Metabolic Activation: NONE, Method: PREINCUBATION
  mutagenic call: inactive; negative
[2]
  mutagenic call: inactive; negative
Test System: AMES SALMONELLA TYPHIMURIUM, Strain/Indicator: TA100, Metabolic Activation: RAT, LIVER, S-9, AROCLOR 1254 (30%), Method: PREINCUBATION
  mutagenic call: inactive; negative
[3]
  mutagenic call: inactive; negative
Test System: AMES SALMONELLA TYPHIMURIUM, Strain/Indicator: TA100, Metabolic Activation: RAT, LIVER, S-9, Method: STANDARD PLATE
  mutagenic call: inactive; negative
Test System: AMES SALMONELLA TYPHIMURIUM, Strain/Indicator: TA1535, Metabolic Activation: HAMSTER, LIVER, S-9, AROCLOR 1254, Method: STANDARD PLATE
  mutagenic call: inactive; negative
Test System: AMES SALMONELLA TYPHIMURIUM, Strain/Indicator: TA1535, Metabolic Activation: HAMSTER, LIVER, S-9, Method: STANDARD PLATE
  mutagenic call: inactive; negative
Test System: AMES SALMONELLA TYPHIMURIUM, Strain/Indicator: TA1535, Metabolic Activation: MOUSE, LIVER, S-9, AROCLOR 1254, Method: STANDARD PLATE
  mutagenic call: inactive; negative
Test System: AMES SALMONELLA TYPHIMURIUM, Strain/Indicator: TA1535, Metabolic Activation: MOUSE, LIVER, S-9, Method: STANDARD PLATE
  mutagenic call: inactive; negative
[4]
  mutagenic call: inactive; negative
[5]
  mutagenic call: inactive; negative
Test System: AMES SALMONELLA TYPHIMURIUM, Strain/Indicator: TA1535, Metabolic Activation: RAT, LIVER, S-9, Method: STANDARD PLATE
  mutagenic call: inactive; negative
Test System: AMES SALMONELLA TYPHIMURIUM, Strain/Indicator: TA1537, Metabolic Activation: HAMSTER, LIVER, S-9, Method: STANDARD PLATE
  mutagenic call: inactive; negative
Test System: AMES SALMONELLA TYPHIMURIUM, Strain/Indicator: TA1537, Metabolic Activation: MOUSE, LIVER, S-9, AROCLOR 1254, Method: STANDARD PLATE
  mutagenic call: inactive; negative
Test System: AMES SALMONELLA TYPHIMURIUM, Strain/Indicator: TA1537, Metabolic Activation: MOUSE, LIVER, S-9, Method: STANDARD PLATE
  mutagenic call: inactive; negative
[6]
  mutagenic call: inactive; negative
[7]
  mutagenic call: inactive; negative
Test System: AMES SALMONELLA TYPHIMURIUM, Strain/Indicator: TA1537, Metabolic Activation: RAT, LIVER, S-9, Method: STANDARD PLATE
  mutagenic call: inactive; negative
Test System: AMES SALMONELLA TYPHIMURIUM, Strain/Indicator: TA1538, Metabolic Activation: MOUSE, LIVER, S-9, Method: STANDARD PLATE
  mutagenic call: inactive; negative
[8]
  mutagenic call: inactive; negative
Test System: AMES SALMONELLA TYPHIMURIUM, Strain/Indicator: TA1538, Metabolic Activation: RAT, LIVER, S-9, Method: STANDARD PLATE
  mutagenic call: inactive; negative
Test System: E. COLI, Strain/Indicator: WP2 UVRA, Metabolic Activation: HAMSTER, LIVER, S-9, AROCLOR 1254, Method: STANDARD PLATE
  mutagenic call: inactive; negative
Test System: E. COLI, Strain/Indicator: WP2 UVRA, Metabolic Activation: HAMSTER, LIVER, S-9, Method: STANDARD PLATE
  mutagenic call: inactive; negative
Test System: E. COLI, Strain/Indicator: WP2 UVRA, Metabolic Activation: MOUSE, LIVER, S-9, AROCLOR 1254, Method: STANDARD PLATE
  mutagenic call: inactive; negative
Test System: E. COLI, Strain/Indicator: WP2 UVRA, Metabolic Activation: MOUSE, LIVER, S-9, Method: STANDARD PLATE
  mutagenic call: inactive; negative
Test System: E. COLI, Strain/Indicator: WP2 UVRA, Metabolic Activation: NONE, Method: STANDARD PLATE
  mutagenic call: inactive; negative
Test System: E. COLI, Strain/Indicator: WP2 UVRA, Metabolic Activation: RAT, LIVER, S-9, AROCLOR 1254, Method: STANDARD PLATE
  mutagenic call: inactive; negative
Test System: E. COLI, Strain/Indicator: WP2 UVRA, Metabolic Activation: RAT, LIVER, S-9, Method: STANDARD PLATE
  mutagenic call: inactive; negative

## CN1CCC=C2c3nc(N)sc3CCC21 (stereo not given)
[1]
  mutagenic call: inactive; negative
Test System: AMES SALMONELLA TYPHIMURIUM, Strain/Indicator: TA98, Metabolic Activation: RAT, LIVER, S-9, AROCLOR 1254, Method: STANDARD PLATE
  mutagenic call: active; positive
[2]
  mutagenic call: inactive; negative
[3]
  mutagenic call: active; positive
[4]
  mutagenic call: inactive; negative
[5]
  mutagenic call: inactive; negative
[6]
  mutagenic call: inactive; negative
[7]
  mutagenic call: inactive; negative
[8]
  mutagenic call: inactive; negative
